Test results: ChEMBL document CHEMBL1926640, “Structure-based rational design of novel hit compounds for pyruvate dehydrogenase multienzyme complex E1 components from Escherichia coli” (Bioorg Med Chem, 2011)

assay: Inhibition of Escherichia coli PDHc-E1 expressed in Escherichia coli TB1 using sodium pyruvate as substrate after 3 mins by 2,6-DCIP reduction assay

Row | IC50 [µM] | Compound
1 | 8.8 | Cc1ncc(Cn2cc(COc3ccc([N+](=O)[O-])cc3)nn2)c(N)n1
2 | 15.1 | Cc1ncc(Cn2cc(COc3ccc(C(=O)O)cc3)nn2)c(N)n1
3 | 6.88 | Cc1ncc(Cn2cc(COc3ccc([N+](=O)[O-])cc3Cl)nn2)c(N)n1
4 | 55.1 | Cc1ncc(Cn2cc(COc3ccccc3)nn2)c(N)n1
